Key:
[1] = system: SMMC-7721; test: Antiproliferative activity against human SMMC7721 cells after 48 hrs by MTT assay; format: functional, cell-based; conditions: SMMC-7721, 48 h
[2] = system: HEK-293T; test: Antiproliferative activity against human 293T cells after 48 hrs by MTT assay; format: cell-based
[3] = system: HT-29; test: cells; conditions: Homo sapiens, HT-29, 48 h
Description: Antiproliferative activity against human HT-29 cells after 48 hrs by MTT assay

[4] = system: HeLa; test: cells; conditions: Homo sapiens, 48 h
[5] = system: A549; test: cells; conditions: Homo sapiens, A549, 48 h

Row | Structure (SMILES) | IC50 [1] [µM] | IC50 [2] [µM] | IC50 [3] [µM] | IC50 [4] [µM] | IC50 [5] [µM]
1 | Cc1ccc(-c2cc(C(F)(F)F)nn2-c2ccc(S(N)(=O)=O)cc2)cc1 [CELECOXIB] | 5.96 | 112 | 8.47 | 11.1 | 7.68
2 | O=c1ccc2ccc(O)cc2o1 [UMBELLIFERONE] | 19.9 | 190 | 22.7 | 42.4 | 21.1

Source: ChEMBL document CHEMBL4052777, “Synthesis of novel hybrids of pyrazole and coumarin as dual inhibitors of COX-2 and 5-LOX” (Bioorg Med Chem Lett, 2017)
